Data taken from ChEMBL document CHEMBL1130551, “Synthesis and progesterone receptor binding affinity of substituted 1-phenyl-7-benzyl-4,5,6,7-tetrahydro-1-indazoles” (Bioorg Med Chem Lett, 1997).
pIC50: −log10 of the molar value. Activity calls are given as the source filed them. The rule behind the calls is not given here.

Key:
[1] = target: T1, Progesterone receptor (Oryctolagus cuniculus, UniProt P06186); test: Binding affinity determined by ability to displace [3H]R5020 radioligand using uterine progesterone receptor obtained from estrogen-primed rabbit
T1 sequence (P06186 whole entry): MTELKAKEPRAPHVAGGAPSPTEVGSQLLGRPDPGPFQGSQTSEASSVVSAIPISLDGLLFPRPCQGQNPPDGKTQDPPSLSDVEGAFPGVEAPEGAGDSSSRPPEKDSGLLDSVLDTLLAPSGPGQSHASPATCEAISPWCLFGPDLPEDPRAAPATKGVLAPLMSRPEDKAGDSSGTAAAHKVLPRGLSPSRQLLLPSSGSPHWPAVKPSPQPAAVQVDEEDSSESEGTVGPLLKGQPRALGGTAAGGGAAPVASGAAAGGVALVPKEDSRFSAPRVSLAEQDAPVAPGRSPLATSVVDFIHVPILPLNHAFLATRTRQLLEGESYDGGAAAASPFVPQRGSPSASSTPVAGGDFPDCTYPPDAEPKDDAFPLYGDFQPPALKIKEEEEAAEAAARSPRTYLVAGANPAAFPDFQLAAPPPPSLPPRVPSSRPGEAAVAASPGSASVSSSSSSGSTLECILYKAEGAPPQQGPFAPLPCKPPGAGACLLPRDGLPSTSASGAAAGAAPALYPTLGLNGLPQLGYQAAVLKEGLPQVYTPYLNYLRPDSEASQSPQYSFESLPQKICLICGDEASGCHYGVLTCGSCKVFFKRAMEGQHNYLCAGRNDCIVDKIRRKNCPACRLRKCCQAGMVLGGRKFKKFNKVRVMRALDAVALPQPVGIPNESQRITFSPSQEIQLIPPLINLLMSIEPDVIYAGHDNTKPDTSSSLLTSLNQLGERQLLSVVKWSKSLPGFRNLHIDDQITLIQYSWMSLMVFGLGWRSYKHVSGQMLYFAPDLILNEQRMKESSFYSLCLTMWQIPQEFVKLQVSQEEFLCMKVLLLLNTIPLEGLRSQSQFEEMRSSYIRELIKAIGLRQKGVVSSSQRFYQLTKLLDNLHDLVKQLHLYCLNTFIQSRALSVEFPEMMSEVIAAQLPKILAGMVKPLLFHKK

[2] = test system: T47D; test: Agonistic activity in T47D human breast carcinoma cell proliferation assay; type: functional
[3] = target: T1, Progesterone receptor; test: Displacement of [3H]R5020 from uterine progesterone receptor of estrogen-primed rabbits; Not active up to 10 uM
[4] = test system: T47D; test: Agonistic activity in T47D human breast carcinoma cell proliferation assay; Not active; type: functional, cell-based
[5] = target: T1, Progesterone receptor; test: Displacement of [3H]R5020 from uterine progesterone receptor of estrogen-primed rabbits; Not active
[6] = test system: T47D; test: Agonistic activity in T47D human breast carcinoma cell proliferation assay; Not active up to 10 uM; type: functional, cell-based

SMILES	pIC50 [1]	SC200 [4]	other results
O=Cc1nn(-c2ccc(F)cc2)c2c1CCCC2Cc1ccccc1 (centres undefined)	8.52	–	SC200 [2]: 22 nM
COC(=O)c1ccc(-n2nc(C=O)c3c2C(Cc2cccc4ccccc24)CCC3)cc1 (centres undefined)	–	–	IC50 [3]: Not Active
O=Cc1nn(-c2ccc(Cl)cc2)c2c1CCCC2Cc1cccc2ccccc12 (centres undefined)	8.05	inactive	–
O=Cc1nn(-c2ccc(O)cc2)c2c1CCCC2Cc1cccc2ccccc12 (centres undefined)	–	–	IC50 [5]: Not Active
CCC(=O)c1nn(-c2ccc(F)cc2)c2c1CCCC2Cc1cccc2ccccc12 (centres undefined)	6.00	–	–
O=Cc1nn(-c2ccc(F)cc2)c2c1CCCC2Cc1ccc(F)cc1 (centres undefined)	8.19	–	SC200 [2]: 27 nM
Cc1ccc(CC2CCCc3c(C=O)nn(-c4ccc(F)cc4)c32)cc1 (centres undefined)	8.11	–	SC200 [2]: 275 nM
CCC(O)c1nn(-c2ccc(F)cc2)c2c1CCCC2Cc1cccc2ccccc12 (centres undefined)	6.16	–	–
O=C(NCc1ccccc1)c1nn(-c2ccc(F)cc2)c2c1CCCC2Cc1cccc2ccccc12 (centres undefined)	< 5.00	–	–
CC(=O)N/N=C/c1nn(-c2ccc(F)cc2)c2c1CCCC2Cc1cccc2ccccc12 (centres undefined)	< 5.00	–	–
O=C(OCc1nn(-c2ccc(F)cc2)c2c1CCCC2Cc1cccc2ccccc12)c1ccccc1 (centres undefined)	6.74	inactive	–
O=Cc1nn(-c2ccc(F)cc2)c2c1CCCC2Cc1ccc(F)c(F)c1 (centres undefined)	8.70	–	SC200 [2]: 81 nM
CCCCCCCCOC(=O)c1ccc(-n2nc(C=O)c3c2C(Cc2cccc4ccccc24)CCC3)cc1 (centres undefined)	< 5.00	inactive	–
COC(=O)Nc1nn(-c2ccc(F)cc2)c2c1CCCC2Cc1cccc2ccccc12 (centres undefined)	5.80	–	–
CC(C)(C)c1ccc(CC2CCCc3c(C=O)nn(-c4ccc(F)cc4)c32)cc1 (centres undefined)	6.00	–	–
CN(C)/N=C/c1nn(-c2ccc(F)cc2)c2c1CCCC2Cc1cccc2ccccc12 (centres undefined)	6.26	inactive	–
CC(C)c1ccc(CC2CCCc3c(C=O)nn(-c4ccc(F)cc4)c32)cc1 (centres undefined)	5.66	–	–
O=Cc1nn(-c2ccc(F)cc2)c2c1CCCC2Cc1ccc2ccccc2c1 (centres undefined)	7.25	inactive	–
O/N=C/c1nn(-c2ccc(F)cc2)c2c1CCCC2Cc1cccc2ccccc12 (centres undefined)	6.20	–	–
OCc1nn(-c2ccc(F)cc2)c2c1CCCC2Cc1cccc2ccccc12 (centres undefined)	7.28	–	SC200 [6]: inactive
CC(=O)c1nn(-c2ccc(F)cc2)c2c1CCCC2Cc1cccc2ccccc12 (centres undefined)	5.76	–	–
Fc1ccc(-n2nc(CNCc3ccccc3)c3c2C(Cc2cccc4ccccc24)CCC3)cc1 (centres undefined)	5.86	–	–
CC(O)c1nn(-c2ccc(F)cc2)c2c1CCCC2Cc1cccc2ccccc12 (centres undefined)	6.63	–	–
O=S(=O)(N/N=C/c1nn(-c2ccc(F)cc2)c2c1CCCC2Cc1cccc2ccccc12)c1ccccc1 (centres undefined)	< 5.00	inactive	–

SMILES	pIC50 [1]	SC200 [4]	other results
CC(=O)OCc1nn(-c2ccc(F)cc2)c2c1CCCC2Cc1cccc2ccccc12 (centres undefined)	7.14	inactive	–
C=Cc1nn(-c2ccc(F)cc2)c2c1CCCC2Cc1cccc2ccccc12 (centres undefined)	6.83	inactive	–
Fc1ccc(-n2nc(/C=N/c3ccccc3)c3c2C(Cc2cccc4ccccc24)CCC3)cc1 (centres undefined)	8.64	–	SC200 [2]: 185 nM
O=Cc1nn(-c2ccc(F)cc2)c2c1CCCC2Cc1ccc(Cl)cc1 (centres undefined)	7.92	inactive	–
O=Cc1nn(-c2cccc(Cl)c2)c2c1CCCC2Cc1cccc2ccccc12 (centres undefined)	7.16	–	–
O=Cc1nn(-c2ccc(F)cc2)c2c1CCCC2Cc1ccccc1Cl (centres undefined)	7.98	–	SC200 [2]: 100 nM
CCN(CC)Cc1nn(-c2ccc(F)cc2)c2c1CCCC2Cc1cccc2ccccc12 (centres undefined)	5.86	–	–
CC(=O)OC(OC(C)=O)c1nn(-c2ccc(F)cc2)c2c1CCCC2Cc1cccc2ccccc12 (centres undefined)	8.28	–	SC200 [2]: 72 nM
CCOC(=O)OCc1nn(-c2ccc(F)cc2)c2c1CCCC2Cc1cccc2ccccc12 (centres undefined)	7.05	inactive	–
O=C(N/N=C/c1nn(-c2ccc(F)cc2)c2c1CCCC2Cc1cccc2ccccc12)c1ccccc1 (centres undefined)	< 5.00	–	SC200 [2]: 2265 nM
COc1ccc(CC2CCCc3c(C=O)nn(-c4ccc(F)cc4)c32)cc1 (centres undefined)	6.79	–	–
COc1cccc(CC2CCCc3c(C=O)nn(-c4ccc(F)cc4)c32)c1 (centres undefined)	7.77	–	SC200 [2]: 417 nM
CCCCCCCC(=O)OCc1nn(-c2ccc(F)cc2)c2c1CCCC2Cc1cccc2ccccc12 (centres undefined)	5.40	inactive	–
CN/N=C/c1nn(-c2ccc(F)cc2)c2c1CCCC2Cc1cccc2ccccc12 (centres undefined)	7.31	inactive	–
CCN(CC)C(=O)c1nn(-c2ccc(F)cc2)c2c1CCCC2Cc1cccc2ccccc12 (centres undefined)	5.52	–	–
O=Cc1nn(-c2ccc(F)cc2)c2c1CCCC2Cc1ccc(-c2ccccc2)cc1 (centres undefined)	5.00	–	–
Fc1ccc(-n2nc(C3OCCO3)c3c2C(Cc2cccc4ccccc24)CCC3)cc1 (centres undefined)	7.01	–	–
O=Cc1nn(-c2ccc(F)cc2)c2c1CCCC2Cc1cccc2ccccc12 (centres undefined)	8.49	–	SC200 [2]: 105 nM
COc1ccc(-n2nc(C=O)c3c2C(Cc2cccc4ccccc24)CCC3)cc1 (centres undefined)	7.90	inactive	–
CCCCOC(=O)c1ccc(-n2nc(C=O)c3c2C(Cc2cccc4ccccc24)CCC3)cc1 (centres undefined)	6.07	inactive	–
O=Cc1nn(-c2ccccc2)c2c1CCCC2Cc1cccc2ccccc12 (centres undefined)	8.22	–	SC200 [2]: 56 nM
N#Cc1nn(-c2ccc(F)cc2)c2c1CCCC2Cc1cccc2ccccc12 (centres undefined)	7.39	inactive	–
COc1ccc(CC2CCCc3c(C=O)nn(-c4ccc(F)cc4)c32)cc1OC (centres undefined)	5.72	–	–
